“And” between values parts separate entries of the source, which are not always exact repeats. Equal entries are not always repeated.
Legend:
[1] = tested on: IRβ, IRS1, Akt (Ser473), AS160; experiment: Phosphorylation of IRβ, IRS1, Akt and AS160 in triceps surae muscle (immunoblot); assay type: in vivo, mouse; details: skeletal muscle, DS20060511 10 mg kg−1 or insulin 5 U kg−1; for phosphorylation of IRβ-subunit and IRS1: Fig. 4a; for phosphorylation of Akt and AS160: Fig. 4b
Protocol: The tissue sample was homogenized with a Polytron homogenizer and lysed in a lysis buffer (25 mM Tris-HCl, pH 7.4, 100 mM NaF, 50 mM Na4P2O7, 10 mM EGTA, 10 mM EDTA, 10 mM Na3VO4, 1 mM PMSF, and 1% NP-40) on ice, and the lysate was centrifuged at 17,860 × g for 10 min at 4 °C. The supernatant was collected and the protein concentrations were determined by BCA assay (Thermo Fisher Scientific). Immunoprecipitation of IRβ and IRS1 was performed as described previously, using specific antibodies against IRβ (sc-711, Santa Cruz Biotechnology, Dallas, TX), IRS1 (06-248, Merck Millipore, Burlington, MA), and for detection of phosphotyrosine (05-321, Merck Millipore). Five milligrams of the extracts were incubated with specific antibodies against IRS1 for 1 h at 4 °C. Then, protein G-Sepharose was added, followed by incubation for 2 h at 4 °C. After washing three times, the immunocomplexes were subjected to immunoblotting.
Phosphorylated or total protein of IRβ and IRS1 was resolved on 7% SDS-PAGE and analyzed using specific antibodies against IRβ, IRS1, and phosphotyrosine. Analyses were also conducted for phosphorylated Akt (1:2000), Akt (1:2,000), AS160 (1:1,000), phospho-AS160 (1:1,000), AMPKα (1:1,000), phospho-AMPKα (1:1,000), GLUT4 (1:200), Na,K-ATPaseα (1:1,000), GAPDH (1:1,000) by immunoblotting with specific antibodies after the tissue lysates were resolved on SDS-PAGE and transferred to a PVDF membrane using Trans-Blot Turbo transfer system (Bio-Rad Laboratories, Hercules, CA). Bound antibodies were detected with HRP-conjugated secondary antibodies using ECL detection reagents (GE Healthcare, Chicago, IL).

[2] = tested on: isolated skeletal muscle; experiment: 2-DG uptake in muscles isolated from NC-fed and HFD-fed mice; set-up: species or system mouse; details: for Raio: 2-DG uptake in isolated muscles; for Raio / 2DOG Trn / IC 2DOG: individual muscles; for 2DOG Trn / IC 2DOG: isolated muscles
Protocol: Fig. 8 Acute and chronic DS20060511 treatment improves glucose intolerance in HFD-fed and db/db mice. a Blood glucose and plasma insulin levels during an oral GTT in normal-chow (NC)- and high-fat diet (HFD)-fed mice (n = 5). Vehicle or DS20060511 (30 mg kg^−1) was given orally 15 min before the oral glucose administration (1.5 g kg^−1). Values shown are means ± SEM. *P < 0.05, **P < 0.01, ***P < 0.001 vs. the HFD vehicle by the t-test. b Effects of 10 μM DS20060511 and 100 nM insulin on 2-DG uptake in muscles isolated from NC-fed (n = 6) and HFD-fed (n = 5) mice. Values shown are means ± SEM. **P < 0.01 by one-way ANOVA followed by Tukey’s test. c, d Changes in the blood glucose levels and AUC on day 1 and day 28 during refeeding (n = 6) in db/db mice treated chronically with DS20060511 (10 mg kg^−1 day^−1). Values shown are means ± SEM. *P < 0.05, **P < 0.01, ***P < 0.001 vs. vehicle by the t-test. e Change of the HbA1c levels in the db/db (n = 6) mice at 4 weeks. Values shown are means ± SEM. *P < 0.05 vs. vehicle by the t-test.
C57BL/6 and db/db mice were purchased from CLEA Japan, Tokyo, Japan. GLUT4- knockout mice were generated at RIKEN BioResource Center, Tsukuba, Japan, according to a previously described method. eNOS-knockout mice were kindly provided by Dr. Masato Tsutsui[41],[42]. The mice were group-housed under controlled illumination (12:12 h light-dark cycle) and temperature (23 ± 2 °C) conditions and given free access to normal chow and water, unless otherwise specified. The HFD-fed obese mice were prepared by feeding C57BL/6 mice a HFD for at least 8 weeks from 6 weeks of age. […] Male mice were used for all the experiments in this study. The animal care and experimental procedures used in the study were approved by The University of Tokyo Animal Care Committee (Approval number: 27-3), and the study was carried out in accordance with the Animal Experimentation Guidelines of Daiichi Sankyo Co., Ltd (Approved number: 20000411).
The soleus or EDL muscle was removed from anesthetized mice (isoflurane anesthesia) that had been denied access to food overnight, and incubated with oxygenated (95% O2/5% CO2) Krebs-Henseleit Bicarbonate (KHB) buffer (118.1 mM NaCl, 4.7 mM KCl, 1.1 mM KH2PO4, 1.2 mM MgSO4, 2.5 mM CaCl2, and 25 mM NaHCO3, pH7.4) in the presence of 11.1 mM glucose at 37 °C. The muscle specimens were then treated with the indicated concentrations of the compounds in KHB buffer containing 11.1 mM glucose and 8 mM mannitol for 10 min at 37 °C. Thereafter, the muscles were rinsed with KHB buffer containing 8 mM mannitol and the compounds for 5 min at 37 °C. Lastly, the muscles were treated with the compounds in KHB buffer containing 1 mM 2-DG (with 0.3 μCi mL^−1 [^3H]-2-DG) and 8 mM mannitol (with 0.03 μCi mL^−1 [^14C]-mannitol) for 10 min at 37 °C. After the muscle specimens were washed, they were lysed with 1 N NaOH and neutralized with 1 N HCl. The ^14C- and ^3H-specific activities were counted with a liquid scintillation counter. The specific uptake of 2-DG was calculated by subtracting the nonspecific uptake of mannitol from the total 2-DG uptake. To investigate the effects of muscle contraction, muscle contraction was induced by electrical stimulation with 5 Hz (1 ms pulse duration, 100 V) for 10 min (SEN-5201, Nihon Koden, Tokyo, Japan).

[3] = HFD, DS20060511 10 μM plus Insulin 100 nM
[4] = HFD, DS20060511 0 μM, Insulin 100 nM
[5] = NC, DS20060511 0 μM, Insulin 100 nM

Compound: COc1ccc2c(C)c(C(=O)O)ccc2c1C1C2=C(CC(C)(C)CC2=O)OC2=C1C(=O)CC(C)(C)C2 [DS20060511]
- phosphorylation of IRβ-subunit and IRS1 [1]: no such phosphorylation of these proteins was observed
- phosphorylation of Akt and AS160 [1]: no such effect
- Raio [2, 3]: 2.30 and 2.20 and 2.00 and 1.46 and 1.88
- suppression of insulin-induced 2-DG uptake in isolated skeletal muscle ([2]; HFD-fed mice, 10 μM DS20060511, 100 nM insulin): completely restored
- 2DOG Trn ([2]; HFD, DS20060511 10 μM plus Insulin 100 nM, incubation time 10 min): 45.7 µM/min and 43.8 µM/min and 39.8 µM/min and 37.4 µM/min
- 2DOG Trn [2, 3]: 457 nmol/mL and 438 nmol/mL and 436 nmol/mL and 374 nmol/mL
- IC 2DOG [2, 3]: 292 nmol/g and 276 nmol/g and 268 nmol/g and 283 nmol/g and 257 nmol/g

Compound: Insulin: Insulin (Humulin, Eli Lilly) in the in vivo experiments; Insulin solution human (I9278, Sigma–Aldrich) in the in vitro experiments
- phosphorylation of IRβ-subunit and IRS1 [1]: phosphorylated
- phosphorylation of Akt and AS160 [1]: induced phosphorylation of Akt and AS160
- Raio [2, 4]: 1.28 and 1.46 and 1.65 and 1.16 and 0.85
- Raio [2, 5]: 2.15 and 2.48 and 1.82 and 1.55 and 1.68 and 2.28
- 2DOG Trn ([2]; HFD, DS20060511 0 μM, Insulin 100 nM, incubation time 10 min): 25.5 µM/min and 29.1 µM/min and 32.9 µM/min and 23.1 µM/min and 14.4 µM/min
- 2DOG Trn [2, 4]: 255 nmol/mL and 291 nmol/mL and 329 nmol/mL and 324 nmol/mL and 259 nmol/mL
- IC 2DOG [2, 4]: 163 nmol/g and 186 nmol/g and 216 nmol/g and 214 nmol/g and 174 nmol/g
- 2DOG Trn ([2]; NC, DS20060511 0 μM, Insulin 100 nM, incubation time 10 min): 27.4 µM/min and 29.7 µM/min and 40.3 µM/min and 38.9 µM/min and 44.9 µM/min and 32.9 µM/min
- 2DOG Trn [2, 5]: 274 nmol/mL and 297 nmol/mL and 403 nmol/mL and 389 nmol/mL and 449 nmol/mL and 329 nmol/mL
- IC 2DOG [2, 5]: 192 nmol/g and 210 nmol/g and 264 nmol/g and 259 nmol/g and 303 nmol/g and 223 nmol/g
